The text below walks through data of patent US5663149A, “Human cancer inhibitory pentapeptide heterocyclic and halophenyl amides” (priority 1994, dated 1997).

The test system of one experiment is SK-MEL-5 (Melanoma). The experiment is described as follows: NCI human tumor cell line growth inhibition, SK-MEL-5. As to conditions: Melanoma SK-MEL-5, 48 hours. Format: cell-based. The method, then:
(§1) The only difference is historical usage.
(§2) Percent Growths are calculated for each dose.
(§3) This is the "baseline count", or "Tzero reading".

The subject of the next experiment is SF-295 (CNS). The experiment is described as follows: NCI human tumor cell line growth inhibition, SF-295. In kind it is cell-based. The following applies: CNS SF-295, 48 hours. The protocol:
as §1, §2, §3

The next experiment deals with OVCAR-3 (Ovarian). The experiment is described as follows: NCI human tumor cell line growth inhibition, OVCAR-3. In kind it is cell-based. The following applies: Ovarian OVCAR-3, 48 hours. The method, then: as §1, §2, §3
The next experiment deals with NCI-H460 (Lung-NSC). Briefly: NCI human tumor cell line growth inhibition, NCI-H460. In kind it is cell-based. The following applies: Lung-NSC NCI-H460, 48 hours. The method, then: as §1, §2, §3
Another experiment concerns PS-388 (Mouse Leukemia). Briefly: P-388 mouse leukemia cell growth inhibition. In kind it is cell-based. As to conditions: Mouse Leukemia PS-388. The method, then: as §1, §2, §3
For a further experiment, the system named is A498 (Renal). As to conditions: Renal A498, 48 hours.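 Also: NCI protocol, compound given at five doses from 0.01 to 100 µg/ml, percent growth versus untreated controls relative to cell count at time zero, regression on log dose.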
The test system of a further experiment is KM20L2 (Colon). Briefly: NCI human tumor cell line growth inhibition, KM20L2. Format: cell-based. As to conditions: Colon KM20L2, 48 hours. The method, then: as §1, §2, §3

One may read the TGI as the concentration giving total growth inhibition. A low value points to greater sensitivity of the cells.

From the text for A498 (Renal): The following measures are used to express drug activity by giving the drug dose which reduces cell growth to a specified percentage of growth:
There is no mathematical difference between ED50 and GI50, which are both calculated using the same formula. The only difference is historical usage.
TGI, (Total Growth Inhibition), is the drug dose needed to yield zero percent growth, i.e., just as many cells at the end of the experiment as were present in the beginning. Whether just as many cells were killed as were produced (steady state), or no growth occurred (total inhibition), cannot be distinguished.
Each drug is tested at five (5) doses: 100-10-1-0.1-0.01 μg/ml. Percent Growths are calculated for each dose. […] The log of the dose is used during the regression computation.
At the start of an experiment, cells from the in vitro cell cultures are inoculated into the appropriate tubes or microtiter plates. One set of control tubes/plates is immediately counted to determine the number of cells at the start of the experiment. This is the "baseline count", or "Tzero reading". At the end of the experiment (48 hours later) a second set of control tubes/plates is analyzed to determine the "Control Growth" value. The growth (or death) of cells relative to the initial quantity of cells is used to define the "Percent of Growth".

Regarding “L-Dolavalyl-L-Valyl-N-Methyl-(S,S,R)-Dolaisoleuinyl-(S,R,R)-Dolaproinyl-L- Methionine N-2,5-Dichlorophenyl Amide [9g]”, the GI-50 with SK-MEL-5 (Melanoma) stood at 0.000062 µg/mL; in the experiment with SF-295 (CNS), 0.00013 µg/mL; in the experiment on OVCAR-3 (Ovarian) it was 0.00014 µg/mL; in the experiment on NCI-H460 (Lung-NSC), 0.00017 µg/mL; with A498 (Renal) it was 0.00036 µg/mL; in the experiment with KM20L2 (Colon), 0.00015 µg/mL. Also, the LC-50 in the experiment on SK-MEL-5 (Melanoma), in the experiment on SF-295 (CNS), in the experiment on OVCAR-3 (Ovarian), in the experiment with NCI-H460 (Lung-NSC), with A498 (Renal) and in the experiment with KM20L2 (Colon) was above 0.001 µg/mL throughout. Also, the total growth inhibition concentration (TGI) with SK-MEL-5 (Melanoma) is 0.65 ng/mL; in the experiment with SF-295 (CNS), above 1 ng/mL; with OVCAR-3 (Ovarian), 0.51 ng/mL; in the experiment with NCI-H460 (Lung-NSC) it was 0.66 ng/mL; in the experiment on A498 (Renal), above 1 ng/mL; in the experiment with KM20L2 (Colon), 0.61 ng/mL. Besides, the ED-50 in the experiment on PS-388 (Mouse Leukemia) is 0.000125 µg/mL.
For “L-Dolavalyl-L-Valyl-N-Methyl-(S,S,R)-Dolaisoleuinyl-(S,R,R)-Dolaproinyl-L- Methionine N-2-Benzothiazole Amide [9m]”, the GI-50 in the experiment with SK-MEL-5 (Melanoma) was determined as 0.0000024 µg/mL; in the experiment with SF-295 (CNS), 0.000022 µg/mL; with OVCAR-3 (Ovarian) it was 0.0000016 µg/mL; in the experiment on NCI-H460 (Lung-NSC) it was 0.000011 µg/mL; in the experiment with A498 (Renal), 0.000016 µg/mL; in the experiment on KM20L2 (Colon), 0.0000041 µg/mL. Moreover, the concentration for total growth inhibition (TGI) in the experiment with SK-MEL-5 (Melanoma) is above 0.1 ng/mL; in the experiment on SF-295 (CNS), above 0.1 ng/mL; in the experiment on OVCAR-3 (Ovarian) it was 0.011 ng/mL; in the experiment with NCI-H460 (Lung-NSC), 0.08 ng/mL; with A498 (Renal), above 0.1 ng/mL; in the experiment with KM20L2 (Colon) it was above 0.1 ng/mL. For the same substance, the ED-50 in the experiment on PS-388 (Mouse Leukemia) was found to be 0.000243 µg/mL.
“L-Dolavalyl-L-Valyl-N-Methyl-(S,S,R)-Dolaisoleuinyl-(S,R,R)-Dolaproinyl-L- Methionine N-2-Chlorophenyl Amide [9b]”: the GI-50 in the experiment on SK-MEL-5 (Melanoma) was found to be 0.00002 µg/mL; with SF-295 (CNS), 0.000036 µg/mL; in the experiment on OVCAR-3 (Ovarian), 0.000028 µg/mL; in the experiment on NCI-H460 (Lung-NSC), 0.000031 µg/mL; in the experiment with A498 (Renal), 0.000073 µg/mL; with KM20L2 (Colon), 0.000034 µg/mL. Further, the LC-50 in the experiment with SK-MEL-5 (Melanoma), with SF-295 (CNS), in the experiment with OVCAR-3 (Ovarian), in the experiment on NCI-H460 (Lung-NSC), in the experiment on A498 (Renal) and in the experiment with KM20L2 (Colon) was above 0.001 µg/mL each time. Also, the concentration for total growth inhibition (TGI) is above 1 ng/mL in the experiment with SK-MEL-5 (Melanoma); above 1 ng/mL in the experiment with SF-295 (CNS); 0.091 ng/mL with OVCAR-3 (Ovarian); 0.11 ng/mL in the experiment on NCI-H460 (Lung-NSC); above 1 ng/mL in the experiment with A498 (Renal); 0.18 ng/mL in the experiment with KM20L2 (Colon). In addition, in the experiment with PS-388 (Mouse Leukemia), the ED-50 was determined as 0.000211 µg/mL.
As for “L-Dolavalyl-L-Valyl-N-Methyl-(S,S,R)-Dolaisoleuinyl-(S,R,R)-Dolaproinyl-L- Methionine N-2-Pyridyl Amide [9o]”, the GI-50 was 0.000016 µg/mL with SK-MEL-5 (Melanoma); 0.00016 µg/mL in the experiment with SF-295 (CNS); 0.000032 µg/mL with OVCAR-3 (Ovarian); 0.00012 µg/mL in the experiment with NCI-H460 (Lung-NSC); 0.00023 µg/mL in the experiment on A498 (Renal); 0.000033 µg/mL in the experiment on KM20L2 (Colon). For the same substance, the LC-50 in the experiment with SK-MEL-5 (Melanoma), with SF-295 (CNS), in the experiment with OVCAR-3 (Ovarian), in the experiment on NCI-H460 (Lung-NSC), in the experiment with A498 (Renal) and in the experiment on KM20L2 (Colon) was above 0.001 µg/mL each time. Besides, the TGI was 0.6 ng/mL with SK-MEL-5 (Melanoma); above 1 ng/mL in the experiment with SF-295 (CNS); 0.22 ng/mL with OVCAR-3 (Ovarian); 0.59 ng/mL with NCI-H460 (Lung-NSC); above 1 ng/mL with A498 (Renal); 0.31 ng/mL with KM20L2 (Colon). The ED-50 in the experiment with PS-388 (Mouse Leukemia) amounted to 0.000262 µg/mL.
“L-Dolavalyl-L-Valyl-N-Methyl-(S,S,R)-Dolaisoleuinyl-(S,R,R)-Dolaproinyl-L- Methionine N-3-Chlorophenyl Amide [9c]”: the GI-50 was 0.0000013 µg/mL in the experiment on SK-MEL-5 (Melanoma); 0.000031 µg/mL in the experiment on SF-295 (CNS); 0.000011 µg/mL in the experiment on OVCAR-3 (Ovarian); 0.000025 µg/mL in the experiment on NCI-H460 (Lung-NSC); 0.000084 µg/mL in the experiment with A498 (Renal); 0.000023 µg/mL in the experiment with KM20L2 (Colon). Further, the LC-50 with SK-MEL-5 (Melanoma), with SF-295 (CNS), in the experiment on OVCAR-3 (Ovarian), in the experiment on NCI-H460 (Lung-NSC), in the experiment with A498 (Renal) and with KM20L2 (Colon) was above 0.001 µg/mL each time. The TGI was 0.26 ng/mL in the experiment on SK-MEL-5 (Melanoma); above 1 ng/mL with SF-295 (CNS); 0.1 ng/mL with OVCAR-3 (Ovarian); 0.11 ng/mL in the experiment on NCI-H460 (Lung-NSC); above 1 ng/mL in the experiment with A498 (Renal); 0.1 ng/mL in the experiment on KM20L2 (Colon). This substance also came in with an ED-50 in the experiment on PS-388 (Mouse Leukemia) of 0.00000264 µg/mL.
On to “L-Dolavalyl-L-Valyl-N-Methyl-(S,S,R)-Dolaisoleuinyl-(S,R,R)-Dolaproinyl-L- Methionine N-3-Quinoline Amide [9p]”, for which the GI-50 amounted to 0.00000038 µg/mL in the experiment with SK-MEL-5 (Melanoma); 0.000004 µg/mL in the experiment on SF-295 (CNS); 0.00000032 µg/mL with OVCAR-3 (Ovarian); 0.0000031 µg/mL in the experiment on NCI-H460 (Lung-NSC); 0.000008 µg/mL in the experiment on A498 (Renal); 0.00000065 µg/mL in the experiment on KM20L2 (Colon). Further, the LC-50 in the experiment with SK-MEL-5 (Melanoma), with SF-295 (CNS), with OVCAR-3 (Ovarian), with NCI-H460 (Lung-NSC), in the experiment with A498 (Renal) and in the experiment on KM20L2 (Colon) was above 0.0001 µg/mL each time. The TGI in the experiment on SK-MEL-5 (Melanoma) was above 0.1 ng/mL; with SF-295 (CNS), above 0.1 ng/mL; with OVCAR-3 (Ovarian), 0.01 ng/mL; with NCI-H460 (Lung-NSC), 0.017 ng/mL; in the experiment on A498 (Renal), above 0.1 ng/mL; in the experiment on KM20L2 (Colon) it was above 0.1 ng/mL. Moreover, the ED-50 in the experiment on PS-388 (Mouse Leukemia) worked out at 0.000356 µg/mL.
For the substance “L-Dolavalyl-L-Valyl-N-Methyl-(S,S,R)-Dolaisoleuinyl-(S,R,R)-Dolaproinyl-L- Methionine N-4-Chlorophenyl Amide [9e]”, the GI-50 in the experiment with SK-MEL-5 (Melanoma) came to 0.00000033 µg/mL; in the experiment on SF-295 (CNS), 0.0000023 µg/mL; in the experiment on OVCAR-3 (Ovarian), 0.00000045 µg/mL; in the experiment with NCI-H460 (Lung-NSC), 0.0000022 µg/mL; in the experiment with A498 (Renal), 0.0000035 µg/mL; in the experiment with KM20L2 (Colon) it was 0.00000084 µg/mL. In addition, the LC-50 in the experiment with SK-MEL-5 (Melanoma), in the experiment with SF-295 (CNS), with OVCAR-3 (Ovarian), with NCI-H460 (Lung-NSC), in the experiment with A498 (Renal) and with KM20L2 (Colon) was above 0.00001 µg/mL each time. Further, the TGI was above 0.01 ng/mL with SK-MEL-5 (Melanoma); above 0.01 ng/mL with SF-295 (CNS); 0.0042 ng/mL with OVCAR-3 (Ovarian); 0.0085 ng/mL in the experiment on NCI-H460 (Lung-NSC); above 0.01 ng/mL with A498 (Renal); 0.0051 ng/mL in the experiment on KM20L2 (Colon). The ED-50 with PS-388 (Mouse Leukemia) came to 0.000603 µg/mL.
Regarding “L-Dolavalyl-L-Valyl-N-Methyl-(S,S,R)-Dolaisoleuinyl-(S,R,R)-Dolaproinyl-L- Methionine N-4-Fluorophenyl Amide [9a]”, the GI-50 in the experiment on SK-MEL-5 (Melanoma) is 0.000038 µg/mL; with SF-295 (CNS), 0.0001 µg/mL; in the experiment on OVCAR-3 (Ovarian) it was 0.000049 µg/mL; in the experiment with NCI-H460 (Lung-NSC) it was 0.000089 µg/mL; with A498 (Renal), 0.00025 µg/mL; in the experiment with KM20L2 (Colon), 0.00005 µg/mL. In addition, the LC-50 with SK-MEL-5 (Melanoma), in the experiment with SF-295 (CNS), in the experiment with OVCAR-3 (Ovarian), with NCI-H460 (Lung-NSC), in the experiment on A498 (Renal) and in the experiment on KM20L2 (Colon) was above 0.001 µg/mL in each case. The concentration for total growth inhibition (TGI) was 0.57 ng/mL in the experiment on SK-MEL-5 (Melanoma); above 1 ng/mL in the experiment with SF-295 (CNS); 0.33 ng/mL in the experiment with OVCAR-3 (Ovarian); 0.66 ng/mL in the experiment with NCI-H460 (Lung-NSC); above 1 ng/mL with A498 (Renal); 0.39 ng/mL in the experiment on KM20L2 (Colon). This substance also returned an ED-50 in the experiment on PS-388 (Mouse Leukemia) of 0.000317 µg/mL.
